# Results taken from the supplement of paper PMC10307832.
# Assays:
# Experiment in all cases: relative viability (nuclei count vs DMSO), 5 days (fraction); higher = more cells survive
# NCI-H2228 = settings: first compound 8 µM
# How it was run: (§1)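 Dosing by pin tool came one day after lung cancer cell lines were seeded in 1536-well plates, using either one drug or a fixed anchor-drug dose plus five library-drug doses (not always all listed) in √10 steps. After 5 days, nuclei were counted on 4× images. Relative viability is treated-well nuclei count divided by vehicle-well nuclei count, and values are medians of duplicate plates.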
# NCI-H2405 = system: NCI-H2405
# How it was run: as §1
# NCI-H520 = system: NCI-H520
# How it was run: as §1
# H3255 = system: H3255
# How it was run: as §1
# NCI-H1975 = system: NCI-H1975
# How it was run: as §1
# NCI-H1734 = system: NCI-H1734
# How it was run: as §1
# PC-3 [JPC-3] = system: PC-3 [JPC-3]
# How it was run: as §1
# HCC-15 = system: HCC-15
# How it was run: as §1
# HCC-827 = system: HCC-827
# How it was run: as §1
# CAL-12T = system: CAL-12T
# How it was run: as §1
# NCI-H1355 = system: NCI-H1355
# How it was run: as §1
# NCI-H1563 = system: NCI-H1563
# How it was run: as §1
smiles,measurement,setting,value
O=c1cc(-c2cccc3c2Sc2ccccc2S3)oc(N2CCOCC2)c1 + CCNC(=O)c1noc(-c2cc(C(C)C)c(O)cc2O)c1-c1ccc(CN2CCOCC2)cc1 [Luminespib] (partner 0.01 µM),relative viability,NCI-H2228,0.143
same,relative viability,NCI-H2405; first compound 0.08 µM,0.522
same,relative viability,NCI-H2405; first compound 0.253 µM,0.565
same,relative viability,NCI-H2405; first compound 0.8 µM,0.464
same,relative viability,NCI-H2405; first compound 2.53 µM,0.568
same,relative viability,NCI-H2405; first compound 8 µM,0.465
same,relative viability,NCI-H520; first compound 0.08 µM,0.223
same,relative viability,NCI-H520; first compound 0.253 µM,0.231
same,relative viability,NCI-H520; first compound 0.8 µM,0.215
same,relative viability,NCI-H520; first compound 2.53 µM,0.205
same,relative viability,NCI-H520; first compound 8 µM,0.231
same,relative viability,H3255; first compound 0.08 µM,0.758
same,relative viability,H3255; first compound 0.253 µM,0.943
same,relative viability,H3255; first compound 0.8 µM,0.84
same,relative viability,H3255; first compound 2.53 µM,0.884
same,relative viability,H3255; first compound 8 µM,0.955
same,relative viability,NCI-H1975; first compound 0.08 µM,0.121
same,relative viability,NCI-H1975; first compound 0.253 µM,0.167
same,relative viability,NCI-H1975; first compound 0.8 µM,0.15
same,relative viability,NCI-H1975; first compound 2.53 µM,0.231
same,relative viability,NCI-H1975; first compound 8 µM,0.169
same,relative viability,NCI-H1734; first compound 0.08 µM,0.195
same,relative viability,NCI-H1734; first compound 0.253 µM,0.175
same,relative viability,NCI-H1734; first compound 0.8 µM,0.228
same,relative viability,NCI-H1734; first compound 8 µM,0.2
same,relative viability,PC-3 [JPC-3]; first compound 0.08 µM,0.685
same,relative viability,PC-3 [JPC-3]; first compound 0.253 µM,0.765
same,relative viability,PC-3 [JPC-3]; first compound 0.8 µM,0.862
same,relative viability,PC-3 [JPC-3]; first compound 2.53 µM,0.687
same,relative viability,PC-3 [JPC-3]; first compound 8 µM,0.493
same,relative viability,HCC-15; first compound 0.08 µM,0.206
same,relative viability,HCC-15; first compound 0.253 µM,0.207
same,relative viability,HCC-15; first compound 0.8 µM,0.373
same,relative viability,HCC-15; first compound 2.53 µM,0.242
same,relative viability,HCC-15; first compound 8 µM,0.276
same,relative viability,HCC-827; first compound 0.08 µM,0.582
same,relative viability,HCC-827; first compound 0.253 µM,0.588
same,relative viability,HCC-827; first compound 0.8 µM,0.656
same,relative viability,HCC-827; first compound 2.53 µM,0.588
same,relative viability,HCC-827; first compound 8 µM,0.639
same,relative viability,CAL-12T; first compound 0.08 µM,0.277
same,relative viability,CAL-12T; first compound 0.253 µM,0.708
same,relative viability,CAL-12T; first compound 0.8 µM,0.506
same,relative viability,CAL-12T; first compound 2.53 µM,0.299
same,relative viability,CAL-12T; first compound 8 µM,0.207
same,relative viability,NCI-H1355; first compound 0.08 µM,0.847
same,relative viability,NCI-H1355; first compound 0.253 µM,0.641
same,relative viability,NCI-H1355; first compound 0.8 µM,0.722
same,relative viability,NCI-H1355; first compound 2.53 µM,0.73
same,relative viability,NCI-H1355; first compound 8 µM,0.605
same,relative viability,NCI-H1563; first compound 0.08 µM,0.708
same,relative viability,NCI-H1563; first compound 0.253 µM,0.567
same,relative viability,NCI-H1563; first compound 0.8 µM,0.491
same,relative viability,NCI-H1563; first compound 2.53 µM,0.491
same,relative viability,NCI-H1563; first compound 8 µM,0.497
